Test results published in patent US20110165115A1, “SYNERGISTIC ATTRACTANTS FOR PESTIFEROUS SOCIAL INSECTS” (STERLING INTERNATIONAL INC., priority 2010, published 2011).

Key:
D. maculata = test: Field trapping Experiment 1, Rescue W•H•Y traps; assay type: in vivo, Dolichovespula maculata; details: Exp 1; HIPV added to WHY attractant in the top chamber, or WHY alone
Method: (§1) Three field trapping experiments were carried out during late July to early August 2009, in residential and woody areas around Spokane, Wash., USA, using the newly marketed Rescue® W•H•Y traps (www.rescue.com). As used herein, the W•H•Y trap is a trap in accordance with the description of United States Patent Application Publication No. 2009/0151228. The W•H•Y trap has a top chamber and a bottom chamber. The top chamber is baited with two attractants—one of which is a solid contained in a vial (2-methyl-1-butanol) and the other a liquid mixed with water (acetic acid), herein referred to as the W•H•Y top attractant. The bottom chamber is baited with a liquid attractant (heptyl butyrate) poured onto a cotton pad, herein referred to as the W•H•Y bottom attractant. Separation of the top and bottom attractants (otherwise antagonistic to each other when released from the same chamber) in two chambers was a design feature of this trap and creates two focal attraction sources from one trap for different species of wasps, hornets, and yellowjackets. Traps were hung 1.5-2.0 m above the ground on either the fence or tree branches ca. 5 m apart within each trap line. For each trapping experiment, six sets of traps were deployed with their initial trap positions within each set being randomized. To minimize positional effects and obtain more replications, wasp collections and trap re-randomization were carried out when ≧10-20 wasps were caught in the best trap. Each replicate lasted several days depending on wasp flight activity. Captured wasps were removed from the traps and kept in the zip-bags before taking back to the laboratory for recording of the species, gender status, and catch.
(§2) Experiment 1 (Jul. 22-30, 2009) tested ten synthetic HIPV candidates [(E)-2-hexenal, (Z)-3-hexen-1-ol, (Z)-3-hexenyl acetate, cis-ocimene, linalool, methyl salicylate, geranyl acetate, trans-β-caryophyllene, trans-β-farnesene and (E)-4,8-dimethyl-1,3,7-nonatriene], including several paper wasp EAD-active compounds (see FIG. 2 for details), to determine their potential synergistic effect on the Rescue® W•H•Y trap attractants to paper wasps, yellowjackets, and hornets. Experiment 2 (Aug. 5-13, 2009) tested behavioral responses of the paper wasps and yellowjackets to the Rescue® W•H•Y trap attractants (top attractants only) and its combination with (E)-4,8-dimethyl-1,3,7-nonatriene, one of the EAD-active and behaviorally significant HIPVs, in a dose-response fashion. Experiment 3 (Aug. 5-13, 2009) was conducted to determine the potential behavioral activity of different doses of (E)-4,8-dimethyl-1,3,7-nonatriene alone. The individual (or different doses) HIPVs were loaded into either polyethylene bags or centrifuge tube type of dispensers, and released from the top of the W•H•Y trap chamber. W•H•Y trap attractants (both top and bottom or top only) alone and water (top chamber only) were included in the test as positive and blank controls, respectively. The dispenser types, loading and release rates of the tested semiochemicals are described in Tables 1, 2 and 3.
(§3) Trap catch data were converted to proportion (P) of total captured wasps within each replicate. Data were then transformed by arcsin√P to meet the assumptions of normality and homogeneity of variances for ANOVA. Means were compared by ANOVA followed by the Ryan-Einot-Gabriel-Welsh (REGW) multiple Q test (SPSS 16.0 for Windows) at α=0.05.

V. acadica = test: Field trapping Experiment 1, Rescue W•H•Y traps; assay type: in vivo, Vespula acadica; details: Exp 1; HIPV added to WHY attractant in the top chamber, or WHY alone
Method: as §1
(§4) Experiment 3 (Aug. 5-13, 2009) was conducted to determine the potential behavioral activity of different doses of (E)-4,8-dimethyl-1,3,7-nonatriene alone. The individual (or different doses) HIPVs were loaded into either polyethylene bags or centrifuge tube type of dispensers, and released from the top of the W•H•Y trap chamber. W•H•Y trap attractants (both top and bottom or top only) alone and water (top chamber only) were included in the test as positive and blank controls, respectively. The dispenser types, loading and release rates of the tested semiochemicals are described in Tables 1, 2 and 3.
as §3

P. dominulus = test: Field trapping Experiment 1, Rescue W•H•Y traps; assay type: in vivo, Polistes dominulus; details: Exp 1; HIPV added to WHY attractant in the top chamber, or WHY alone
Method: as §1, §4, §3

V. vulgaris = test: Field trapping Experiment 1, Rescue W•H•Y traps; assay type: in vivo, Vespula vulgaris; details: Exp 1; HIPV added to WHY attractant in the top chamber, or WHY alone
Method: as §1, §4, §3

P. aurifer = test: Field trapping Experiment 1, Rescue W•H•Y traps; assay type: in vivo, Polistes aurifer; details: Exp 1; HIPV added to WHY attractant in the top chamber, or WHY alone
Method: as §1, §4, §3

V. pensylvanica = test: Field trapping Experiment 1, Rescue W•H•Y traps; assay type: in vivo, Vespula pensylvanica; details: Exp 1; HIPV added to WHY attractant in the top chamber, or WHY alone
Method: as §1, §4, §3

V. consobrina = assay type: in vivo, Vespula consobrina; details: Exp 1; HIPV added to WHY attractant in the top chamber, or WHY alone
Method: as §1, with “catch. […]” for “catch.”
as §3

V. atropilosa = assay type: in vivo, Vespula atropilosa; details: Exp 1; HIPV added to WHY attractant in the top chamber, or WHY alone
D. arenaria = test: Field trapping Experiment 1, Rescue W•H•Y traps; assay type: in vivo, Dolichovespula arenaria; details: Exp 1; HIPV added to WHY attractant in the top chamber, or WHY alone
Method: as §1, §2, §3

[1] = system: P. dominulus workers antennae; test: GC-EAD of synthetic mixture of known HIPVs; parameters: species or system Polistes dominulus; details: 100 ng/μl each in hexane
Method: (§5) Aeration samples of the cherry branches (damaged or undamaged/slightly damaged) were injected (3 μl) splitless into a Varian CP-3800 GC equipped with a polar column (HP-INNOWax; 30 m×0.53 mm×1.0 μm film thickness; Agilent Technologies, Wilmington, Del., USA) and a 1:1 effluent splitter that allowed simultaneous flame ionization detection (FID) and electroantennographic detection (EAD) of the European paper wasp (Polistes dominulus) worker antennae to the separated volatile compounds. Helium was used as the carrier gas, and the injector and detector temperatures were 250° C. and 300° C., respectively. Column temperature was 50° C. for 1 min, rising to 240° C. at 10° C./min, and then held for 10 min. The outlet for the EAD was held in a humidified air stream flowing at 0.5 m/sec over the antennal preparation. EAD recordings were made using silver wire-glass capillary electrodes filled with Beadle-Ephrussi Ringer on freshly cut antennae. The antennal signals were stored and analyzed on a PC equipped with a serial IDAC interface box and the program EAD ver. 2.5 (Syntech, Hilversum, The Netherlands). In addition, GC-EAD responses to a synthetic mixture (100 ng/μl each) containing nine known HIPVs including cis-3-hexen-1-ol, cis-3-hexenyl acetate, trans-β-ocimene, (E)-4,8-dimethyl-1,3,7-nonatriene, linalool, methyl salicylate, geranyl acetate, trans-β-caryophyllene and trans-β-farnesene were tested on the P. dominulus workers. (See FIG. 2.) The same chemicals were also tested on beneficial insect antennae from Chrysopa oculata, Myrmeleon crudelis, Podisus maculiventris, and Hippodarnia convergens. (See FIG. 6.) Antennally active peaks in the aeration samples were identified by GC-MS on an HP 6890 GC series coupled with an HP 5973 Mass Selective Detector using the same type of GC column and conditions as described above. Compounds were identified by comparison of retention times with those of authentic standards and with mass spectra of standards.

[2] = system: Polistes dominulus worker antennae; test: GC-EAD of cherry branch aeration samples
Method: Lapin cherry branches with severely damaged cherries and leaves and undamaged or slightly damaged branches were collected from a cherry orchard at Creston, Canada, on Jul. 29, 2009, and were transported to the Sterling International, Inc. lab (Spokane, Wash.) on the same day and kept at 4° C. before aerations. Headspace volatiles from the cherry branches (damaged or undamaged) were sampled by a battery operated pump and a high density polyacetate oven bag (48.2×59.6 cm Reynolds® Oven Bag; Richmond, Va., USA) enclosure with one activated charcoal filter tube in the air inlet, on Jul. 30, 2009. The volatiles in the enclosure were trapped on one Porapak Q tube (50/80 mesh; 30 mg in Teflon tube: 3 mm×35 mm) for 2.5 hr (airflow 300 ml/min) and extracted with 1 ml redistilled pentane. Aeration samples of the cherry branches (damaged or undamaged/slightly damaged) were injected (3 μl) splitless into a Varian CP-3800 GC equipped with a polar column (HP-INNOWax; 30 m×0.53 mm×1.0 μm film thickness; […] Helium was used as the carrier gas, and the injector and detector temperatures were 250° C. and 300° C., respectively. Column temperature was 50° C. for 1 min, rising to 240° C. at 10° C./min, and then held for 10 min. The outlet for the EAD was held in a humidified air stream flowing at 0.5 m/sec over the antennal preparation. EAD recordings were made using silver wire-glass capillary electrodes filled with Beadle-Ephrussi Ringer on freshly cut antennae. The antennal signals were stored and analyzed on a PC equipped with a serial IDAC interface box and the program EAD ver. 2.5 (Syntech, Hilversum, The Netherlands). […] (See FIG. 2.) The same chemicals were also tested on beneficial insect antennae from Chrysopa oculata, Myrmeleon crudelis, Podisus maculiventris, and Hippodarnia convergens. (See […] active peaks in the aeration samples were identified by GC-MS on an HP 6890 GC series coupled with an HP 5973 Mass Selective Detector using the same type of GC column and conditions as described above. Compounds were identified by comparison of retention times with those of authentic standards and with mass spectra of standards.

[3] = system: Podisus maculiventris antennae; test: GC-EAD of synthetic HIPVs on beneficial insect antennae; details: FIG. 6
Method: as §5

[4] = system: Hippodarnia convergens antennae; test: as above; details: FIG. 6
Method: as §5

[5] = system: Chrysopa oculata antennae; test: as above; details: FIG. 6
Method: as §5

[6] = system: Myrmeleon crudelis antennae; test: as above; details: FIG. 6
Method: as §5

[7] = system: paper wasps and yellowjackets; test: Field trapping bioassays, synergism with AA/2MB (summary); assay type: in vivo; details: at the doses tested
Method: as §1
(§6) Experiment 3 (Aug. 5-13, 2009) was conducted to determine the potential behavioral activity of different doses of (E)-4,8-dimethyl-1,3,7-nonatriene alone. The individual (or different doses) HIPVs were loaded into either polyethylene bags or centrifuge tube type of dispensers, and released from the top of the W•H•Y trap chamber. […]

yellowjackets = test: Field trapping Experiment 1, top chamber catches; assay type: in vivo; details: Exp 1; HIPV combined with W•H•Y attractant (acetic acid and 2-methyl-1-butanol) in the top chamber
Method: as §1, §6

[8] = aeration of severely damaged cherry branches, at current release rates
[9] = aeration of undamaged or slightly damaged cherry branches

Structure (SMILES)	Total Yellowjacket Catches D. maculata (D. maculata)	Total Yellowjacket Catches V. acadica (V. acadica)	Total Paper Wasps P. dominulus (P. dominulus)	Total Yellowjacket Catches V. vulgaris (V. vulgaris)	Total Paper Wasps P. aurifer (P. aurifer)	Total Yellowjacket Catches V. pensylvanica (V. pensylvanica)	Total Yellowjacket Catches V. consobrina (V. consobrina)	Total Yellowjacket Catches V. atropilosa (V. atropilosa)	Total Yellowjacket Catches D. arenaria (D. arenaria)	EAD response of worker antennae [1]	EAD response of worker antennae [2, 8]	other results
CCC/C=C/C=O [E-2-Hexenal, (E)-2-hexenal]	2	0	19	44	8	423	0	3	4			
C=CC(C)(O)CCC=C(C)C (stereo not drawn) [Linalool, linalool]	1	0	46	32	13	291	0	0	0	responded consistently		
Cc1ccc(C(C)C)cc1 [p-cymene]											did not elicit significant EAD-responses	
C=C/C(C)=C/CC=C(C)C [β-ocimene, trans-β-ocimene]										responded consistently		EAD-response [3]: strong EAD-responses; EAD-response [4]: strong EAD-responses; EAD-response [5]: strong EAD-responses; EAD-response [6]: strong EAD-responses; synergism of attraction to mixture of acetic acid and 2-methyl-1-butanol [7]: significantly synergize
CCCCCCCCC=O [nonanal]											repeatable antennal response	EAD response of worker antennae [2, 9]: strongly responded
CC(=O)OC/C=C(\C)CCC=C(C)C [Geranyl Acetate, geranyl acetate]	1	0	13	18	4	128	1	2	2	responded consistently		effect on trap catches of yellowjackets in the top chambers (yellowjackets): inhibitory effect
C=C/C=C(/C)CCC=C(C)C [(Z)-4,8-dimethyl-1,3,7-nonatriene]										responded consistently		
CCC/C=C/COC(C)=O [(E)-2-hexenyl acetate]												EAD response of worker antennae [2, 9]: strongly responded
C=C/C(C)=C/C/C=C(\C)CCC=C(C)C [α-farnesene]											did not elicit significant EAD-responses	
